The target in one series is T1, IRAK4 (Homo sapiens, UniProt Q9NWZ3).
T1 construct: endogenous in cells; host or cells: OCI-LY10
T1 sequence (Q9NWZ3 1-460): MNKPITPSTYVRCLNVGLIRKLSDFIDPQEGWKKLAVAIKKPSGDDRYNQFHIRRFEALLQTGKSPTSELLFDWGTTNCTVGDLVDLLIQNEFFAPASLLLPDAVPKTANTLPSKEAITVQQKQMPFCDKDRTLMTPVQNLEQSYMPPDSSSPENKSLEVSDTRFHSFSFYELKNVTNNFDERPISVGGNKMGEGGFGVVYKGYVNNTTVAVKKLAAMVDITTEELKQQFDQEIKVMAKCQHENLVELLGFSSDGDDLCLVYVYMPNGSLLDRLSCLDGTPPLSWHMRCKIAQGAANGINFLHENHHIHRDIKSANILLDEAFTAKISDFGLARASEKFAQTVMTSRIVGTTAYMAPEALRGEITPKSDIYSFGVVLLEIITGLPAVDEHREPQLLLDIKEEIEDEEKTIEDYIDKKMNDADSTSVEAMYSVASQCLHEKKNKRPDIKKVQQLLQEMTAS
Nature of the series: IRAK4 MSD degradation in OCI-LY10. It is filed as cell-based. The following applies: OCI-LY10 cells, 24 hrs, Meso Scale Discovery. The procedure, abridged: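 OCI-LY10 cells treated 4 to 24 hours at 37° C. with 8-dose 1:3 series, top 1 to 10 μM. IRAK4 in lysates quantified by MSD sandwich immunoassay (mouse capture, rabbit detection, SULFO-TAG anti-rabbit). DC50 from three-parameter logistic fit.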

A short description of series [1]: Rodent pharmacokinetics (rat PK). Type of series: in vivo. The following applies: po, dosed intravenously or orally by gavage, plasma, read-out: F % (bioavailability). Summed up:
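Rats were dosed IV or by oral gavage, with jugular blood taken predose and at 5 min (IV only), 15, 30 min and 1, 2, 4, 8, 24 h. Plasma was separated by centrifugation at 4 °C. Oral bioavailability (F %) is coded A (≥5%) or B (≤5%).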

Consider `CN(C[C@H]1CC[C@H](c2nc3cc(C(C)(C)O)c(NC(=O)c4cncc(C(F)(F)F)n4)cc3s2)CC1)[C@@H]1CCN(c2cccc3c2n(C)c(=O)n3C2CCC(=O)NC2=O)C[C@@H]1F` (single isomer, unassigned) [I-309], for which, at IRAK4, the DC50 is under 10 nM. For the same compound, the bioavailability in series [1] is at least 5%.

Regarding `COc1cc2nn([C@H]3CC[C@H](CN4CCC5(CN(c6cccc7c6n(C)c(=O)n7C6CCC(=O)NC6=O)C5)C(F)(F)C4)CC3)cc2cc1NC(=O)c1cncc(F)c1` (stereo partly drawn) [I-248], the DC50 at IRAK4 was under 10 nM. Further, the bioavailability in series [1] is at most 5%.

Regarding `COc1cc2nn([C@H]3CC[C@H](CN4CC[C@@H](c5cccc6c5n(C)c(=O)n6C5CCC(=O)NC5=O)[C@H](F)C4)CC3)cc2cc1NC(=O)c1cccc(C#N)c1` (stereo partly drawn) [I-250], the half-maximal degradation concentration (DC50) at IRAK4 is under 10 nM. The bioavailability in series [1] was at most 5%.

Turning to `Cn1c(=O)n(C2CCC(=O)NC2=O)c2cccc(C#CCN3CCN(C[C@H]4CC[C@H](n5cc(NC(=O)c6cnn7ccc(N8C[C@H]9C[C@@H]8CO9)nc67)c(C(F)F)n5)CC4)C[C@H]3C(F)(F)F)c21` (single isomer, unassigned) [I-304], the DC50 at IRAK4 was in the range of 10 to 100 nM. The bioavailability in series [1] is at least 5%.

In the case of `Cn1c(=O)n([C@H]2CCC(=O)NC2=O)c2cccc([C@@H]3CCN(C[C@H]4CC[C@H](n5cc6cc(NC(=O)c7cncc(C(F)(F)F)n7)ccc6n5)CC4)C[C@H]3F)c21` (single isomer, unassigned) [I-209], at IRAK4, the DC50 was under 10 nM. Besides, in series [1], the bioavailability is at most 5%.

On IRAK4, `Cn1c(=O)n(C2CCC(=O)NC2=O)c2ccc(F)c([C@@H]3CCN(C[C@H]4CC[C@H](n5cc6cc(NC(=O)c7cncc(C(F)(F)F)n7)ccc6n5)CC4)C[C@H]3F)c21` (single isomer, unassigned) [I-348] showed a DC50 of under 10 nM. Also, the bioavailability in series [1] was at least 5%.

Regarding `Cn1c(=O)n(C2CCC(=O)NC2=O)c2cccc([C@@H]3CCN(C[C@H]4CC[C@H](n5cc6cc(NC(=O)c7cncc(C(F)(F)F)n7)ccc6n5)CC4)C[C@H]3F)c21` (single isomer, unassigned) [I-112], on IRAK4, the 50% degradation concentration (DC50) was under 10 nM. Further, in series [1], the bioavailability is at most 5%.

Take `Cc1nn(C2CCC(=O)NC2=O)c2cccc([C@H]3CCN(C[C@H]4CC[C@H](n5cc6cc(NC(=O)c7cncc(C(F)(F)F)n7)ccc6n5)CC4)CC3(F)F)c12` (single isomer, unassigned) [I-372]: at IRAK4, the half-maximal degradation concentration (DC50) fell in the range of 10 to 100 nM. Also, in series [1], the bioavailability was at least 5%.

The compound `COc1cc(C(=O)Nc2ccc3nn([C@H]4CC[C@H](CN5CC[C@@H](c6cccc7c6n(C)c(=O)n7C6CCC(=O)NC6=O)[C@H](F)C5)CC4)cc3c2)nc(C(F)(F)F)c1` (stereo partly drawn) [I-394] had a DC50 at IRAK4 of over 200 nM. The bioavailability in series [1] is at least 5%.

Compound `COc1cc2nn([C@H]3CC[C@H](CN4CCC5(CCN(c6cccc7c(C8CCC(=O)NC8=O)nn(C)c67)CC5)C(F)(F)C4)CC3)cc2cc1NC(=O)c1cncc(C#N)c1` (stereo partly drawn) [I-132] displayed a DC50 at IRAK4 of under 10 nM. In addition, the bioavailability in series [1] was at most 5%.

The compound `Cn1c(=O)n(C2CCC(=O)NC2=O)c2cccc([C@@H]3CCN(C[C@H]4CC[C@H](n5cc6cc(NC(=O)c7cncc(C#N)c7)c(C(C)(C)O)cc6n5)CC4)CC3(F)F)c21` (single isomer, unassigned) [I-389] displayed a DC50 on IRAK4 of under 10 nM. Further, the bioavailability in series [1] is at most 5%.

At IRAK4, `Cc1nn(C2CCC(=O)NC2=O)c2cccc([C@@H]3CCN(C[C@H]4CC[C@H](n5cc6cc(NC(=O)c7cncc(C(F)(F)F)n7)ccc6n5)CC4)CC3(F)F)c12` (single isomer, unassigned) [I-371] registered a DC50 of 10 to 100 nM. Besides, the bioavailability in series [1] is at least 5%.

Regarding `COc1cc2nn([C@H]3CC[C@H](CN4CC[C@@H](c5cccc6c5n(C)c(=O)n6C5CCC(=O)NC5=O)[C@H](F)C4)CC3)cc2cc1NC(=O)c1cncc(C(F)(F)F)n1` (stereo partly drawn) [I-189], at IRAK4, the DC50 is under 10 nM. In series [1], the bioavailability was at most 5%.

On IRAK4, `Cn1c(=O)n(C2CCC(=O)NC2=O)c2cccc(C#CCN3CCN(C[C@H]4CC[C@H](n5cc(NC(=O)c6cnn7ccc(N8C[C@H]9C[C@@H]8CO9)nc67)c(C(F)F)n5)CC4)CC3=O)c21` (stereo partly drawn) [I-186] registered a DC50 of under 10 nM. Moreover, the bioavailability in series [1] was at most 5%.

Regarding `Cn1c(=O)n(C2CCC(=O)NC2=O)c2cccc([C@@H]3CCN(C[C@H]4CC[C@H](n5cc6cc(C(=O)Nc7cccc(C(F)(F)F)n7)ccc6n5)CC4)C[C@H]3F)c21` (stereo partly drawn) [I-201], the DC50 at IRAK4 was under 10 nM. For the same compound, the bioavailability in series [1] was at most 5%.

`CN(C[C@H]1CC[C@H](c2cn3cc(NC(=O)c4cncc(C(F)(F)F)n4)ccc3n2)CC1)[C@H]1CCN(c2cccc3c2n(C)c(=O)n3C2CCC(=O)NC2=O)C[C@@H]1F` (single isomer, unassigned) [I-294] registered a DC50 at IRAK4 of under 10 nM. Besides, in series [1], the bioavailability was at most 5%.

Take `Cn1c(=O)n(C2CCC(=O)NC2=O)c2cccc([C@@H]3CCN(C[C@H]4CC[C@H](n5cc6cc(NC(=O)c7cncc(C8CC8)n7)ccc6n5)CC4)C[C@H]3F)c21` (stereo partly drawn) [I-311]: the DC50 on IRAK4 is under 10 nM. The bioavailability in series [1] is at most 5%.

As for `Cn1c(=O)n(C2CCC(=O)NC2=O)c2cccc(N3CCC4(CCN(C[C@H]5CC[C@H](n6cc7cc(NC(=O)c8cncc(C#N)c8)c(C(C)(C)O)cc7n6)CC5)CC4(F)F)CC3)c21` (mixture of isomers) [I-136, 5-Cyano-N-[2-[4-[[9-[1-(2,6-dioxo-3-piperidyl)-3-methyl-2-oxo-benzimidazol-4-yl]-5,5-difluoro-3,9-diazaspiro[5.5]undecan-3-yl]methyl]cyclohexyl]-6-(1-hydroxy-1-methyl-ethyl)indazol-5-yl]pyridine-3-carboxamide], the 50% degradation concentration (DC50) on IRAK4 was under 10 nM. In addition, the bioavailability in series [1] was at most 5%.

At IRAK4, `O=C1CCC(n2c(=O)oc3c([C@H]4CCN(C[C@H]5CC[C@H](n6cc7cc(NC(=O)c8cncc(C(F)(F)F)n8)ccc7n6)CC5)C[C@@H]4F)cccc32)C(=O)N1` (single isomer, unassigned) [I-360] showed a half-maximal degradation concentration (DC50) of over 200 nM. In addition, in series [1], the bioavailability was at most 5%.

For the compound `COc1cc2nn([C@H]3CC[C@H](COCC4CN(c5cccc6c5n(C)c(=O)n6C5CCC(=O)NC5=O)C4)CC3)cc2cc1NC(=O)c1cncc(C#N)c1` (stereo partly drawn) [I-270], the half-maximal degradation concentration (DC50) at IRAK4 lay within 10 to 100 nM. Also, the bioavailability in series [1] is at most 5%.

Regarding `Cn1c(=O)n(C2CCC(=O)NC2=O)c2cccc([C@@H]3CCN(C[C@H]4CC[C@H](n5cc6cc(NC(=O)c7cccc(C(F)(F)F)c7)ncc6n5)CC4)C[C@H]3F)c21` (stereo partly drawn) [I-244], at IRAK4, the DC50 is under 10 nM. Besides, the bioavailability in series [1] is at most 5%.

`Cn1nc(C2CCC(=O)NC2=O)c2cccc([C@@H]3CCN(C[C@H]4CC[C@H](n5cc6cc(NC(=O)c7cncc(C#N)c7)c(C(C)(C)O)cc6n5)CC4)C[C@H]3F)c21` (single isomer, unassigned) [I-362] had a DC50 on IRAK4 of under 10 nM. Moreover, the bioavailability in series [1] is at least 5%.

On IRAK4, `COc1ccc2c(c1[C@H]1CCN(C[C@H]3CC[C@H](n4cc5cc(NC(=O)c6cncc(C(F)(F)F)n6)ccc5n4)CC3)CC1(F)F)n(C)c(=O)n2C1CCC(=O)NC1=O` (single isomer, unassigned) [I-392] showed a DC50 of under 10 nM. Further, the bioavailability in series [1] was at least 5%.

`Cn1c(=O)n(C2CCC(=O)NC2=O)c2cccc([C@@H]3CCN(C[C@H]4CC[C@H](c5nc6cc(C(C)(C)O)c(NC(=O)c7cccc(C(F)(F)F)n7)cc6s5)CC4)C[C@H]3F)c21` (single isomer, unassigned) [I-102] showed a DC50 on IRAK4 of under 10 nM. Besides, the bioavailability in series [1] was at least 5%.

Compound `Cn1c(=O)n(C2CCC(=O)NC2=O)c2cccc(N3CCC4(CCN(C[C@H]5CC[C@H](c6nc7cc(C(C)(C)O)c(NC(=O)c8cccc(C(F)(F)F)n8)cc7o6)CC5)CC4(F)F)CC3)c21` (stereo partly drawn) [I-408] yielded a half-maximal degradation concentration (DC50) at IRAK4 of over 200 nM. Moreover, in series [1], the bioavailability was at least 5%.

At IRAK4, `Cn1c(=O)n(C2CCC(=O)NC2=O)c2cccc(N3CCC4(CCN(C[C@H]5CC[C@H](n6cc7cc(NC(=O)c8cncc(F)c8)c(C(C)(C)O)cc7n6)CC5)CC4(F)F)CC3)c21` (stereo partly drawn) [I-386] displayed a DC50 of under 10 nM. Besides, the bioavailability in series [1] is at least 5%.

`Cn1c(=O)n(C2CCC(=O)NC2=O)c2cccc(N3CC4(CCN(C[C@H]5CC[C@H](c6nc7cc(C(C)(C)O)c(NC(=O)c8cccc(C(F)(F)F)n8)cc7o6)CC5)CC4(F)F)C3)c21` (stereo partly drawn) [I-411]: the DC50 at IRAK4 was over 200 nM. Further, the bioavailability in series [1] is at least 5%.

With `Cn1c(=O)n(C2CCC(=O)NC2=O)c2cccc(N3CC4(CCN(C[C@H]5CC[C@H](n6cc7cc(NC(=O)c8cncc(C(F)(F)F)c8)c(C(C)(C)O)cc7n6)CC5)CC4(F)F)C3)c21` (stereo partly drawn) [I-373], the DC50 on IRAK4 is under 10 nM. In addition, in series [1], the bioavailability is at most 5%.

Take `CN(C[C@H]1CC[C@H](c2cn3cc(NC(=O)c4cncc(C(F)(F)F)n4)ccc3n2)CC1)[C@@H]1CCN(c2cccc3c2n(C)c(=O)n3C2CCC(=O)NC2=O)C[C@@H]1F` (single isomer, unassigned) [I-213]: on IRAK4, the DC50 is under 10 nM. Further, the bioavailability in series [1] is at most 5%.

For `COc1cc2nc([C@H]3CC[C@H](CN4CC[C@@H](c5cccc6c5n(C)c(=O)n6C5CCC(=O)NC5=O)[C@H](F)C4)CC3)cn2cc1NC(=O)c1cccc(C(F)(F)F)c1` (stereo partly drawn) [I-278], the DC50 on IRAK4 was under 10 nM. In addition, the bioavailability in series [1] was at most 5%.

Usually DC50 stands for the midpoint of the concentration-degradation curve. As usually defined, the bioavailability is the share of a dose that reaches the circulation, judged against a reference dose that is usually intravenous.

The values are drawn from patent US20250059164A1, “IRAK DEGRADERS AND USES THEREOF” (Kymera Therapeutics, Inc., priority 2023, published 2025).
